# Paper PMC7754409 (Journal of Clinical Pharmacology, 2020)
# Where two headings read alike, the source gives them in different places.
# Tests used:
# [1] = assay type: in vivo, human; conditions: for AUC(0-inf): human, plasma, AUCinf, GM (CV%), total AUCinf; for distribution of exposure (AUCinf, Cmax) across Child-Pugh classifications: subjects with normal NCIc, box plots Figures 2A, 3
# [2] = cited from earlier work
# [3] = any degree of HI based on Child-Pugh
# [4] = Child-Pugh mild and moderate HI
SMILES,AUC(0-inf) ([1]; Child-Pugh mild HI group) [ng·h/mL],AUC(0-inf) ([1]; Child-Pugh moderate HI group) [ng·h/mL],AUC(0-inf) ([1]; NCIc mild group) [ng·h/mL],AUC(0-inf) ([1]; NCIc moderate group) [ng·h/mL],AUC(0-inf) ([1]; NCIc normal group) [ng·h/mL],"distribution of exposure (AUCinf, Cmax) across Child-Pugh classifications [1]",higher AUCinf compared with normal NCIc hepatic function ([1]; NCIc mild HI) [%],AUC(0-inf) ([1]; Child-Pugh severe HI group) [ng·h/mL],AUC(0-inf) ([1]; NCIc severe group) [ng·h/mL],AUCinf in Child-Pugh mild HI compared with Child-Pugh normal ([1]; within subjects with normal NCI hepatic function) [fold],exposure (AUCinf and Cmax) of mild and moderate groups compared with normal hepatic function ([1]; based on either classification system (Child-Pugh or NCIc)),unbound AUCinf of mild group compared with normal hepatic function ([1]; via either classification (Child-Pugh or NCIc)),effect of HI on axitinib exposure (Cmax and AUCinf) versus normal ([2]; Child-Pugh mild HI),higher AUCinf (exposure) compared with normal ([2]; Child-Pugh moderate HI) [fold],"higher exposure compared with normal hepatic function [2, 3] [fold]","plasma elimination half-life compared with normal hepatic function [2, 3]","effect of HI on dacomitinib exposure versus normal [2, 4]",mean fraction unbound in plasma ([2]; across Child-Pugh hepatic function groups),"effect of HI on sunitinib exposure (AUCinf and Cmax) versus normal [2, 4]"
"COc1cc(Nc2c(C#N)cnc3cc(OCCCN4CCN(C)CC4)c(OC)cc23)c(Cl)cc1Cl [Bosutinib, bosutinib]",1940,1730,1580,1860,1130,higher exposure,40,1660,1350,~2,,,,,~2,longer,,,
"COc1cc2ncnc(Nc3ccc(F)c(Cl)c3)c2cc1NC(=O)/C=C/CN1CCCCC1 [Dacomitinib, dacomitinib]",811,682,753,583,800,,,,685,,similar,,,,,,did not alter,,
"CCN(CC)CCNC(=O)c1c(C)[nH]c(/C=C2\C(=O)Nc3ccc(F)cc32)c1C [Sunitinib, sunitinib]",1510,1480,1690,1530,1340,,,,,,,,,,,,,,did not alter

# Further lines, with some results ahead:
AUC(0-inf) ([1]; Child-Pugh mild HI group) [ng·h/mL],AUC(0-inf) ([1]; Child-Pugh moderate HI group) [ng·h/mL],AUC(0-inf) ([1]; NCIc mild group) [ng·h/mL],AUC(0-inf) ([1]; NCIc moderate group) [ng·h/mL],AUC(0-inf) ([1]; NCIc normal group) [ng·h/mL],"distribution of exposure (AUCinf, Cmax) across Child-Pugh classifications [1]",higher AUCinf compared with normal NCIc hepatic function ([1]; NCIc mild HI) [%],AUC(0-inf) ([1]; Child-Pugh severe HI group) [ng·h/mL],AUC(0-inf) ([1]; NCIc severe group) [ng·h/mL],AUCinf in Child-Pugh mild HI compared with Child-Pugh normal ([1]; within subjects with normal NCI hepatic function) [fold],exposure (AUCinf and Cmax) of mild and moderate groups compared with normal hepatic function ([1]; based on either classification system (Child-Pugh or NCIc)),unbound AUCinf of mild group compared with normal hepatic function ([1]; via either classification (Child-Pugh or NCIc)),SMILES,effect of HI on axitinib exposure (Cmax and AUCinf) versus normal ([2]; Child-Pugh mild HI),higher AUCinf (exposure) compared with normal ([2]; Child-Pugh moderate HI) [fold],"higher exposure compared with normal hepatic function [2, 3] [fold]","plasma elimination half-life compared with normal hepatic function [2, 3]","effect of HI on dacomitinib exposure versus normal [2, 4]",mean fraction unbound in plasma ([2]; across Child-Pugh hepatic function groups),"effect of HI on sunitinib exposure (AUCinf and Cmax) versus normal [2, 4]"
122,304,210,410,137,appeared similar,,,,,,,"CNC(=O)c1ccccc1Sc1ccc2c(/C=C/c3ccccn3)n[nH]c2c1 [Axitinib, axitinib]",did not affect,2,,,,,
,,,,,,,,,,,overall similar,"CC(=O)c1c(C)c2cnc(Nc3ccc(N4CCNCC4)cn3)nc2n(C2CCCC2)c1=O [Palbociclib, palbociclib]",,,,,,increased with worsening hepatic function,
